We go through one molecule from PMC10778980, “Profiling Novel Quinuclidine-Based Derivatives as Potential Anticholinesterase Drugs: Enzyme Inhibition and Effects on Cell Viability” (International Journal of Molecular Sciences, 2023).

Structures are written as SMILES. “Also recorded” adds a separate entry of the source. Where two headings read alike, the source gives them in different places.

For one data set, the target named is T1, human AChE (Homo sapiens, UniProt P22303).
T1 construct: The sources of human AChE and BChE were native erythrocytes and plasma, respectively; from tissue; host or cells: human erythrocytes from venous blood of a healthy volunteer
T1 sequence (P22303 32-617 isoform P22303-2 limits assumed): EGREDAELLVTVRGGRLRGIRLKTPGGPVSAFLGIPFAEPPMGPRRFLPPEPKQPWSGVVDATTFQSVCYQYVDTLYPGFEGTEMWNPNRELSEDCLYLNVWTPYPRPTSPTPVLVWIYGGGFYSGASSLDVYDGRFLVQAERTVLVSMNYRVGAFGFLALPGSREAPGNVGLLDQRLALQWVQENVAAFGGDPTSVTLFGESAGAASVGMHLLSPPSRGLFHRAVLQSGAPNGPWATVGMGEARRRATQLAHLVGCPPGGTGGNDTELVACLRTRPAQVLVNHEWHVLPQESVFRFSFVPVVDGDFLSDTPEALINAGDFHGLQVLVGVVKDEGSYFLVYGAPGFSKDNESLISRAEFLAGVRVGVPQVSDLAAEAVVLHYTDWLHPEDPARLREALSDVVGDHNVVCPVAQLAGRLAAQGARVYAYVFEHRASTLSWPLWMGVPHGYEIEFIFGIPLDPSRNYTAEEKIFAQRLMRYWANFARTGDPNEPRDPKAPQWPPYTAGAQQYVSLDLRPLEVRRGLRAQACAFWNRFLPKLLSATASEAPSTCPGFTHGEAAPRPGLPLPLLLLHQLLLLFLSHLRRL
Description: Reversible inhibition of AChE (Ellman's procedure, Hunter–Downs evaluation). In kind it is biochemical. From the text:
(§1) Cholinesterase substrate acetylthiocholine (ATCh) and the thiol reagent 5,5′-dithiobis(2-nitrobenzoic acid) (DTNB) for the enzyme activity measurement were purchased from Sigma-Aldrich (St. Louis, MO, USA). The sources of human AChE and BChE were native erythrocytes and plasma, respectively, obtained from the blood of a healthy volunteer and in accordance with the approval of the Ethics Committee of the Institute for Medical Research and Occupational Health (approval number: 100-21/23-6). Erythrocytes and plasma were isolated from the whole blood and prepared according to a previously published procedure. Namely, venous blood was collected into a heparinized tube and centrifuged (at 4 °C, 20 min on 2500 rpm, Eppendorf centrifuge 5702R) to separate plasma from the erythrocytes. Plasma was removed and used as a source of BChE, while erythrocytes were washed twice with the 0.1 M sodium phosphate buffer, pH 7.4, in a volume corresponding to the initial volume of the whole blood. Both plasma and erythrocytes were frozen at −20 °C until use. Quinuclidine compounds were dissolved in dH2O as 10 or 100 mM; exceptionally, 3-hydroxyimino compounds with longer chains (C12−C16) were dissolved in DMSO as 100 mM solutions. Stock solutions were kept at 4 °C until use. Further dilutions were made in distilled water.
(§2) The reversible inhibition experiments followed a previously published procedure. Namely, the enzyme activity was measured in the presence of a wide range of quinuclidine compound concentrations and in the substrate range from 0.1 to 0.5 mM to confirm the type of compound binding. The activity was assayed following the Ellman’s procedure, with the modification in the wavelength used for detection of the TNB anion in the case of AChE activity measurement due to the interference of the hemoglobin, and according to Worek et al.. The assay was performed in 96-well plates on an Infinite M200PRO plate reader (Tecan Austria GmbH, Salzburg, Austria) at 25 °C. Each concentration was tested in triplicate or quadruplicate on each plate. The inhibition mixture contained 0.1 M sodium phosphate buffer, pH 7.4, enzyme (AChE or BChE), quinuclidine compound (0.2–400 μM final), DTNB (0.3 mM final), and ATCh (from 0.1 to 0.5 mM final) to start the reaction. The increase in absorbance was read at 436 nm for AChE and at 412 nm for BChE. The measured activity in the presence of compounds was corrected for the non-enzymatic hydrolysis of substrate ATCh, if detected. The reversible enzyme–quinuclidine complex dissociation constants (the inhibition constants) Ki were evaluated from the effect of the substrate concentration on the degree of inhibition according to the Hunter–Downs equation as described previously, taking into account only quinuclidine concentrations where 20–80% inhibition of the activity was observed.

Data set [1] concerns HepG2 cells. In words: Cytotoxicity assay (MTS) on HepG2. In kind it is cell-based. The settings on record: Homo sapiens. How it is done: (§3) SH-SY5Y cells were grown in DMEM F12 (Sigma-Aldrich, St. Louis, MO, USA) supplemented with 15% (v/v) fetal bovine serum (FBS), 2 mM glutamine, and 1% (v/v) non-essential amino acids (NEAA). HepG2 cells were grown in EMEM supplemented with 10% (v/v) FBS, 2 mM glutamine, and 1% (v/v) non-essential amino acids NEAA. All media and supplements were purchased from Sigma-Aldrich, Steinheim, Germany.
(§4) The procedure followed a previously described protocol.

Data set [2] has as its system SH-SY5Y cells. The settings on record: 24 h exposure; read-out: IC50 ± SE SH-SY5Y 24 h; cited from earlier work.
Data set [3] relates to SH-SY5Y cells. Description: Mitochondrial membrane potential (TMRE assay) on SH-SY5Y. The settings on record: 4 h exposure, LOAEL concentrations. In kind it is cell-based, human. How it is done: (§5) Human neuroblastoma SH-SY5Y (ECACC 94030304) and human hepatocyte carcinoma HepG2 (ECACC 85011430) were used to evaluate in vitro dose- and time-dependent different cell effects. The SH-SY5Y cell line was selected as it represents a well-established model for studying neuronal cells, while HepG2 hepatocytes represent a liver model as a major organ participating in the metabolism of diverse compounds [31, 61, 62]. SH-SY5Y cells were grown in DMEM F12 (Sigma-Aldrich, St. Louis, MO, USA) supplemented with 15% (v/v) fetal bovine serum (FBS), 2 mM glutamine, and 1% (v/v) non-essential amino acids (NEAA). HepG2 cells were grown in EMEM supplemented with 10% (v/v) FBS, 2 mM glutamine, and 1% (v/v) non-essential amino acids NEAA. All media and supplements were purchased from Sigma-Aldrich, Steinheim, Germany.
(§6) Mitochondrial membrane potential (ΔΨm) was determined using a cell-permeable, potential-sensitive cationic dye, tetramethylrhodamine ethyl ester perchlorate (TMRE, Cell Signaling Technology Europe, Leiden, The Netherlands). Cells were exposed for 4 h to derivatives 3–5 and 10–12. The procedure followed a previously described protocol. A concentration of 50 µM carbonyl cyanide 3-chlorophenylhydrazone (CCCP, Cell Signaling Technology Europe, Leiden, The Netherlands) was used as a positive control. Data were evaluated from at least three independent experiments (performed in duplicate) and presented as a normalized signal to the untreated control, according to the manufacturer’s calculation protocol.

For data set [4], the system named is HepG2 cells. Description: Cell membrane integrity (LDH release) on HepG2. In kind it is cell-based, human. The settings on record: HepG2, 4 h exposure, 12.5–200 µM. How it is done: as §5
(§7) Cell membrane integrity was determined after 4 h exposure to derivatives 3–5 and 10–12 by measuring the release of the intracellular lactate dehydrogenase (LDH), and the procedure followed a previously described protocol using The CytoTox-ONE™ Homogeneous Membrane Integrity Assay (Promega, Madison, WI, USA). Triton X-100 at a final concentration of 0.18% (v/v) (stock of 9% in water; Sigma-Aldrich, Steinheim, Germany) was used as a positive control to determine the maximal LDH release. Data were taken from at least two independent experiments (each treatment performed in duplicate) and plotted as a percentage of LDH release compared to the determined maximal LDH release, according to the manufacturer’s calculation protocol.
For orientation: Release of lactate dehydrogenase indicates damage to the cell membrane.

For data set [5], the system named is SH-SY5Y cells. Description: Cytotoxicity assay (MTS) on SH-SY5Y. In kind it is cell-based. The settings on record: Homo sapiens. How it is done:
as §3, §4

The target of the next data set is T2, human BChE (Homo sapiens, UniProt P06276).
T2 construct: Plasma was removed and used as a source of BChE; from tissue; host or cells: human blood plasma from a healthy volunteer
T2 sequence (P06276 29-602): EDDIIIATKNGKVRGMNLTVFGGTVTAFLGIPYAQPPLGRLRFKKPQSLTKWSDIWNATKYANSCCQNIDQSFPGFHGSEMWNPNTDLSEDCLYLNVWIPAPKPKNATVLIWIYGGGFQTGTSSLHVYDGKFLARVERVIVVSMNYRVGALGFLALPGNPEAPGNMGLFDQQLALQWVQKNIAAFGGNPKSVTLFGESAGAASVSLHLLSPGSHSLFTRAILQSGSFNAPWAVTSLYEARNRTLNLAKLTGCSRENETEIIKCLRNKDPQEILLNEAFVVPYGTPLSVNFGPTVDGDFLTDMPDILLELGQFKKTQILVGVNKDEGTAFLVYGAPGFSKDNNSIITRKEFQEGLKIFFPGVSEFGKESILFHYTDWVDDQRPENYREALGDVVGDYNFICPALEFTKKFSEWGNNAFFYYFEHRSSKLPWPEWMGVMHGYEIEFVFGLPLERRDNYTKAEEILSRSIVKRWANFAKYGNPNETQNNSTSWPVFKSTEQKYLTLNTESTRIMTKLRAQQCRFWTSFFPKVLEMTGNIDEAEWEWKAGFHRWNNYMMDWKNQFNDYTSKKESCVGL
In words: biochemical. The settings on record: Ki ± standard error; 0.1, 0.2, 0.35 and 0.5 mM substrate ATCh; 25 °C, pH 7.4; read-out: Ki BChE.
Description: as §1, §2

For data set [6], the system named is SH-SY5Y cells. In words: Cell membrane integrity (LDH release) on SH-SY5Y. Type of data set: cell-based, human. The conditions noted are these: 4 h exposure, 12.5–200 µM. As for the experimental part:
as §5, §7

Data set [7] has as its system HepG2 cells. In words: Mitochondrial membrane potential (TMRE assay) on HepG2. The conditions noted are these: HepG2, 4 h exposure, LOAEL concentrations. In kind it is cell-based, human. As for the experimental part:
as §5, §6

Another data set relates to caspase 8. In words: Caspase 8 activity in SH-SY5Y (multiplex activity assay kit). In kind it is cell-based, human. The settings on record: 4 h treatment, LOAEL concentrations. As for the experimental part: as §3
Caspases (cysteine-aspartic proteases) caspase 3, caspase 8, and caspase 9 were simultaneously analyzed in cells using specific substrate and fluorogenic indicators from the Caspase-3, Caspase-8, and Caspase-9 Multiplex Activity Assay Kit (Abcam, Cambridge, UK). […] The procedure followed a previously described protocol. […] Data were evaluated from at least three independent experiments (performed in duplicate or triplicate), according to the manufacturer’s assay kit calculation protocol, and presented as a normalized signal to the untreated control.

The term Ki denotes a measure of affinity in units of concentration, obtained from inhibition or displacement. In general, IC50 refers to the point on the concentration scale where inhibition reaches its midpoint. As to `CCCCCCCCCCCC[N+]12CCC(CC1)/C(=N\O)C2` [Compound 10], the Ki came out at 14.3 ± 1.8 µM on human AChE (Ki ± standard error, 0.1, 0.2, 0.35 and 0.5 mM substrate ATCh, 25 °C, pH 7.4); 5.4 ± 0.8 µM at human BChE. For the same molecule, the “Ki (AChE)/Ki (BChE)” value at human AChE (selectivity ratio) is 2.6. Besides, the half-inhibitory concentration (IC50) in the data set on HepG2 cells [1] (HepG2, read-out: IC50 ± SE HepG2 1 h, 1 h exposure) is 218 ± 1 µM; in the data set with HepG2 cells [1] (HepG2, 4 h exposure, read-out: IC50 ± SE HepG2 4 h) it was 81 ± 1 µM; in the data set on HepG2 cells [1] (HepG2, 24 h exposure, read-out: IC50 ± SE HepG2 24 h), 15 ± 1 µM; in the data set on SH-SY5Y cells [2] it was 147 ± 1 µM; in the data set on SH-SY5Y cells [5] (4 h exposure, read-out: IC50 ± SE SH-SY5Y 4 h), 174 ± 1 µM; with SH-SY5Y cells [5] (read-out: IC50 ± SE SH-SY5Y 1 h, 1 h exposure), 208 ± 3 µM. The “Mitochondrial membrane potential (ΔΨm)” value in the data set on SH-SY5Y cells [3] and in the data set on HepG2 cells [7] was “decrease in the mitochondrial membrane potential” throughout. For the same molecule, the figures for the LDH release entry in the data set on HepG2 cells [4] and with SH-SY5Y cells [6] were “significant LDH release” and “strongest effect; also recorded: significant LDH release”, respectively. Also, the “Caspase 8 activation” value with caspase 8 is “significant activation”.
